From BindingDB's records for patent US12319655 (Deciphera Pharmaceuticals, 2025) come the findings set out here.

Test [1] deals with T1, Serine/threonine-protein kinase B-raf [416-766,V600E] (Homo sapiens, UniProt P15056, V600E).
T1 construct: 416-766
Kind of test: Biochemical Assay for B-Raf (V600E) (1). The protocol:
Activity of B-Raf (V600E) (SEQ. ID NO: 4) kinase was determined spectroscopically using a coupled pyruvate kinase/lactate dehydrogenase assay that continuously monitors the ATP hydrolysis-dependent oxidation of NADH (e.g., Schindler et al., Science, 2000, 289, 1938-1942). Assays were conducted in 384-well plates (100 μL final volume) using 0.03 nM B-Raf (SignalChem), 1.5 units pyruvate kinase, 2.1 units lactate dehydrogenase, 1 mM phosphoenol pyruvate, 0.28 mM NADH, 30.1 nM MEK (SignalChem), and 1 mM ATP in assay buffer (100 mM Tris, Ph 7.5, 15 mM MgCl2, 0.5 mM DTT, 0.1% octyl-glucoside, 0.002% (w/v) BSA, and 0.002% Triton X-100). Inhibition of B-Raf (V600E) was measured by adding serial diluted test compound (final assay concentration of 1% DMSO). A decrease in absorption at 340 nm was monitored continuously for 6 h at 30° C. on a multi-mode microplate reader (BioTek). The reaction rate was calculated using the 3 to 4 h time frame. The reaction rate at each concentration of compound was converted to percent inhibition using controls (i.e., reaction with no test compound and reaction with a known inhibitor) and IC50 values were calculated by fitting a four-parameter sigmoidal curve to the data using Prism (GraphPad software).

Test [2] deals with T2, RAF proto-oncogene serine/threonine-protein kinase [306-648,Y340D,Y341D] (Homo sapiens, UniProt P04049, Y340D/Y341D).
T2 construct: 306-648
T2 sequence (P04049 306-648 Y340D/Y341D): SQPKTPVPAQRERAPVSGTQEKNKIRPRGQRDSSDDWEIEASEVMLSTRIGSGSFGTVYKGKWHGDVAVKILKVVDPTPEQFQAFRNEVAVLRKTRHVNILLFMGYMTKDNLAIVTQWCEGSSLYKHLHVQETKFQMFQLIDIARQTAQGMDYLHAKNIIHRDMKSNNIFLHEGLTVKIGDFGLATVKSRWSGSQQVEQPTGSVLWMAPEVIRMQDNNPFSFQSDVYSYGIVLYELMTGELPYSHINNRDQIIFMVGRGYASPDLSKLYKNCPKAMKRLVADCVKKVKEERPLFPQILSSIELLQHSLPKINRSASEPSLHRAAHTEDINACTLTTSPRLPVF
As to the kind of experiment: Biochemical Assay for C-Raf (1). The protocol: (§1) Activity of C-Raf kinase (SEQ. ID NO: 3) was determined spectroscopically using a coupled pyruvate kinase/lactate dehydrogenase assay that continuously monitors the ATP hydrolysis-dependent oxidation of NADH (e.g., Schindler et al., Science, 2000, 289, 1938-1942). Assays were conducted in 384-well plates (100 μL final volume) using 0.43 nM C-Raf (Sigma), 1.5 units pyruvate kinase, 2.1 units lactate dehydrogenase, 1 mM phosphoenol pyruvate, 0.28 mM NADH, 30.1 nM MEK (SignalChem), and 1 mM ATP in assay buffer (100 mM Tris, Ph 7.5, 15 mM MgCl2, 0.5 mM DTT, 0.1% octyl-glucoside, 0.002% (w/v) BSA, and 0.002% Triton X-100). Inhibition of C-Raf was measured by adding serial diluted test compound (final assay concentration of 1% DMSO). A decrease in absorption at 340 nm was monitored continuously for 6 h at 30° C. on a multi-mode microplate reader (BioTek). The reaction rate was calculated using the 4 to 5 h time frame. The reaction rate at each concentration of compound was converted to percent inhibition using controls (i.e., reaction with no test compound and reaction with a known inhibitor) and IC50 values were calculated by fitting a four-parameter sigmoidal curve to the data using Prism (GraphPad software).

For test [3], the target named is T3, Serine/threonine-protein kinase B-raf [416-766] (UniProt P15056).
T3 construct: 416-766
T3 sequence (P15056 416-766): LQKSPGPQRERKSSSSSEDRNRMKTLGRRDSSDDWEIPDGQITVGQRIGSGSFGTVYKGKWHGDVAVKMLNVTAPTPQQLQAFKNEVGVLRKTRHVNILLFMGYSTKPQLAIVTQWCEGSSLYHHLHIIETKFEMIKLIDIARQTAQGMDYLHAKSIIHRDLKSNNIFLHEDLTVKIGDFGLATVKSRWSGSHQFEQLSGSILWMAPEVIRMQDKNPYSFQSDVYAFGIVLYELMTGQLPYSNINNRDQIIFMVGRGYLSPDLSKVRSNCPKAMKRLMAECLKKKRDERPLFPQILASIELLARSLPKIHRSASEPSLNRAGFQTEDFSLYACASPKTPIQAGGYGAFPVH
As to the kind of experiment: Biochemical Assay for B-Raf (1). The procedure: as §1, with “B-Raf” for “C-Raf”, “2)” for “3)”, “0.13” for “0.43”

Structures are written as SMILES.

T1 sequence (P15056 416-766 V600E): as the sequence (P15056 416-766) above, with V185E counted along it

On to `Cc1ccc(NC(=O)c2ccnc(C(F)(F)F)c2)cc1-c1cc(-c2ccnc(N)c2)n(C)c(=O)c1` [US12319655, Example 53], for which, in test [1], the IC50 was less than 100 nM.
On to `Cc1ccc(NC(=O)c2ccnc(C(C)(C)C#N)c2)cc1-c1ccnc(-c2ccncc2)c1` [US12319655, Example 55], for which the IC50 in test [2] and in test [3] was less than 100 nM throughout.
On to `Cc1ccc(NC(=O)c2ccnc(C(F)(F)F)c2)cc1-c1cccc(-c2ccnc(NC(=O)C3CC3)c2)c1` [US12319655, Example 58], for which the IC50 in test [2] and in test [1] was less than 100 nM each time.
Take `Cc1ccc(NC(=O)c2cnnc(C3CC3)c2)cc1-c1nccc(-c2ccnc(NC(=O)C3CC3)c2)n1` [US12319655, Example 272]: the IC50 in test [2] and in test [3] was less than 100 nM in each case.
